This assay has as its target T1, sterol 14-reductase (Rattus norvegicus, UniProt A0ACM8Q6X4).
T1 construct: microsome which was used as an enzyme source of sterol 14-reductase; from tissue; host or cells: liver microsomes of male Sprague-Dawley rats fed lovastatin and cholestyramine
T1 sequence (A0ACM8Q6X4 1-418): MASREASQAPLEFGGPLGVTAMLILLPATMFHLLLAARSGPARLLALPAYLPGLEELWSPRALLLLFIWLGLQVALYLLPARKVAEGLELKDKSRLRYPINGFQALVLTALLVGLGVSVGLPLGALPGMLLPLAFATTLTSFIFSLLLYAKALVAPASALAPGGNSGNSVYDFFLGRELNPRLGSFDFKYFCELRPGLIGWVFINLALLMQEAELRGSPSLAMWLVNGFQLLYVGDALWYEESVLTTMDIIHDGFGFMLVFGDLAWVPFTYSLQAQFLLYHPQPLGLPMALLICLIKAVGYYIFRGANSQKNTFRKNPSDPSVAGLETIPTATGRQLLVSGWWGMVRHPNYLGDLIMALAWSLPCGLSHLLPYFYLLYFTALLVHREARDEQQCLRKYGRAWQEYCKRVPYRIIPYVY
Kind of assay: Inhibition of sterol 14-reductase in rat liver microsomes. To be noted: read-out: Enzyme Activity (relative in vitro activity for sterol 14-reductase, IC50 class). The format is biochemical.

Molecules are shown by their SMILES. pIC50: −log10 of the molar value.

Method: 20 Male Sprague-Dawley rats weighing from 150 to 250 g have been fed for 7 days with a diet containing 0.1% (w/w) Lovastatin and 5% (w/w) Cholestyramine. The animals were fasted for 12 hours before excising liver tissues and then sacrificed by decapitation at midnight. An aqueous solution containing 0.25M of sucrose was injected into the hepatic portal vein to remove all the blood within the liver, and then, the liver was excised. The liver was homogenated with two volumes of buffer solution A (0.1M potassium phosphate, 1 mM reduced glutathione, 0.5 mM EDTA, 20% (v/v) glycerol, pH 7.4) by repeating pestles over 10 times and then, centrifuged with 900×g for 5 minutes to give a supernatant. The supernatant was centrifuged with 12,000×g for 20 minutes. The supernatant obtained was ultracentrifuged with 105,000×g for 90 minutes to give a microsome which was used as an enzyme source of sterol 14-reductase. Assay for sterol 14-reductase was carried out as follows:
60 mmol of 4,4-dimethyl-5α-cholesta-7,14-dien-3β-ol and 5,6-dihydrodibenzo-[a,g]quinolizinium salts (compound no. 2) dissolved in DMSO were added to an assay mixture (total volume 1.0 ml) containing 2 mg of the microsomal protein, 2 mM of NADPH and 25 mg of glucose plus 20 units of glucose oxidase with preincubations under nitrogen at 37° C. for 4 min. unless otherwise specified to establish anaerobic condition. Buffer A (0.1M potassium phosphate buffer, pH 7.4, including 1 mM reduced glutathione, 0.5 mM EDTA, and 20% (v/v) glycerol) used for incubation had been equilibrated with nitrogen, and nitrogen was exchanged for air in all sealed reaction flasks prior to the start of incubations. Incubation of the complete mixture was carried out anaerobically in sealed flasks for 10 min at 37° C. unless otherwise indicated. Incubations were terminated by the addition of 1 ml of ethanolic KOH followed by heating under reflux for 10 min. Sterols were extracted four times with 4 ml of petroleum ether, and the solvent was evaporated to dryness under a nitrogen stream. The resulting residue was dissolved in 200-500 μl of n-hexane for quantification by GLC at high sensitive attenuation. The activity of sterol 14-reductase was determined with the amount of the substrate wherein the double bonds of 14-carbon were reduced (for the amount reduced by 1 mg of the microsome protein for 1 minute).

As to `CCc1c2[n+](cc3c(OCc4ccc(OCc5ccccc5)cc4)c(OC)ccc13)CCc1cc(OC)c(OC)cc1-2` [Compound No. 14, 5,6-dihydro-2,3-dimethoxybenzo[a]-9-(4-benzyloxy)-benzyloxy-13-ethyl-10-methoxybenzo[g]quinolizinium chloride], the pIC50 was below 4.00.

With `CCc1c2[n+](cc3c(OCc4c(F)c(F)c(F)c(F)c4F)c(OC)ccc13)CCc1cc(OC)c(OC)cc1-2` [Compound No. 70, 5,6-dihydro-2,3-dimethoxybenzo[a]-13-ethyl-10-methoxy-9-(2,3,4,5,6-pentafluoro)benzyloxybenzo[g]quinolizinium acetate], the pIC50 was 4.00 to 5.00.

For `CCc1c2[n+](cc3c(OCc4ccc(C(F)(F)F)cc4)c(OC)ccc13)CCc1cc3c(cc1-2)OCO3` [Compound No. 50, 5,6-dihydro-2,3-methylenedioxybenzo[a]-13-ethyl-10-methoxy-9-(4-trifluoromethyl)benzyloxybenzo[g]quinolizinium iodide], the pIC50 was 4.00 to 5.00.

For the molecule `CCOc1cc2c(cc1OCC)-c1c(CC)c3ccc(OCC)c(OCc4ccc(C(F)(F)F)cc4)c3c[n+]1CC2` [Compound No. 62, 5,6-dihydro-2,3-diethoxybenzo[a]-10-ethoxy-13-ethyl-9-(4-trifluoromethyl)benzyloxybenzo[g]quinolizinium chloride], the pIC50 is 4.00 to 5.00.

For the molecule `CCOc1cc2c(cc1OCC)-c1c(CC)c3ccc(OC)c(OCc4ccc(Cl)nc4)c3c[n+]1CC2` [Compound No. 58, 5,6-dihydro-2,3-diethoxybenzo[a]-9-(6-chloropyridinyl-3-yl)methoxy-13-ethyl-10-methoxybenzo [g]-quinolizinium chloride], the pIC50 was 4.00 to 5.00.

Consider `CCc1c2[n+](cc3c(OCc4cc(C)ccc4C)c(OC)ccc13)CCc1cc(OC)c(OC)cc1-2` [Compound No. 15, 5,6-dihydro-2,3-dimethoxybenzo[a]-9-(2,5-dimethyl)benzyloxy-13-ethyl-10-methoxybenzo[g]quinolizinium chloride], for which the pIC50 is below 4.00.

For `C=CCOc1c(OC)ccc2c(CC)c3[n+](cc12)CCc1cc(OC)c(OC)cc1-3` [Compound No. 26, 5,6-dihydro-2,3-dimethoxybenzo[a]-13-ethyl-10-methoxy-9-allyloxybenzo[g]quinolizinium chloride], the pIC50 is below 4.00.

Take `CCc1c2[n+](cc3c(OCc4c(F)cccc4Cl)c(OC)ccc13)CCc1cc(OC)c(OC)cc1-2` [Compound No. 23, 5,6-dihydro-2,3-dimethoxybenzo[a]-9-(2-chloro-6-fluoro)benzyloxy-13-ethyl-10-methoxybenzo[g]quinolizinium chloride]: the pIC50 is 4.00 to 5.00.

Turning to `CCc1c2[n+](cc3c(OCc4ccc(Cl)nc4)c(OC)ccc13)CCc1cc(OC)c(OC)cc1-2` [Compound No. 71, 5,6-dihydro-2,3-dimethoxybenzo[a]-9-(6-chloropyridine-3-yl)methoxy-13-ethyl-10-methoxybenzo-[g]quinolizinium nitrate], the pIC50 is 4.00 to 5.00.

Take `CCCCCCCCCCCCOc1c(OC)ccc2c(CC)c3[n+](cc12)CCc1cc(OC)c(OC)cc1-3` [Compound No. 1, 5,6-dihydro-2,3-dimethoxybenzo[a]-9-dodecoxy-13-ethyl-10-methoxybenzo[g]quinolizinium chloride]: the pIC50 was above 6.00.

Take `CCc1c2[n+](cc3c(OCc4ccc(C(C)(C)C)cc4)c(OC)ccc13)CCc1cc(OC)c(OC)cc1-2` [Compound No. 69, 5,6-dihydro-2,3-dimethoxybenzo[a]-9-[4-(tert-butyl)-benzyloxy]-13-ethyl-10-methoxybenzo[g]quinolizinium bisulfate]: the pIC50 is 4.00 to 5.00.

For the molecule `CCc1c2[n+](cc3c(OCc4ccc(CS(=O)(=O)c5ccccc5)cc4)c(OC)ccc13)CCc1cc(OC)c(OC)cc1-2` [Compound No. 38, 5,6-dihydro-2,3-dimethoxybenzo[a]-13-ethyl-10-methoxy-9-[4-(phenylsulfonylmethyl)benzyloxy]benzo[g]-quinolizinium chloride], the pIC50 is 4.00 to 5.00.

The values are drawn from patent US6028197A, “Dibenzo[a,g]quinolizinium derivatives and the salts thereof” (Hanwha Corporation, priority 1998, dated 2000).
